{
  "source": "patent US20240383913A1",
  "about": "“THIOPHENE RING COMPOUND, PREPARATION METHOD THEREFOR AND APPLICATION THEREOF” (CENTER FOR EXCELLENCE IN MOLECULAR CELL SCIENCE, CHINESE …, priority 2021, published 2024)",
  "key": {"[1]": {"tested_on": "restraint-induced depression-like behaviors", "experiment": "Tail suspension test after 5-hour restraint", "format": "in vivo, C57B6 male mice", "details": "for Immobility time (seconds), tail suspension test: 5 hour restraint", "protocol": "The experimental animals were C57B6 male mice, n=8 in each group. 5-hour restraint were used to develop depression-like behavioral representations of the mice, then the effects of the compounds on their “depression-like” behaviors were measured according to behavioral performance in tail suspension test and forced swimming test. The specific experimental procedures were as follows: Firstly, the mice were restrained using a mouse fixator for tail vein injection. During the restraint process, all movement abilities of the mice were restricted under the condition of introducing minimal pain to the mice. Compounds were administered intraperitoneally twice, before and after restraint, respectively. After compound administration, the mice returned to the cage to recover for 30 minutes. After 30 minutes recovery, the mice in different groups were subjected to tail suspension test or forced swimming test to measure their “depression-like” behaviors.\nTail suspension test: mouse tails were fixed a cantilever arm on an iron rack using adhesive tape, and the mouse was maintained in a suspension position for 6 minutes. The first 2 minutes were the adaptation period and no data collection was performed. Subsequently, the mouse's immobility behavior was recorded intermittently for the remaining 4 minutes. The duration of immobility was measured to assess the level of behavioral despair in the mice. Data statistics were performed using Student-t-test analysis, *p<0.05, ** p<0.01, *** p<0.001, **** p<0.0001."}, "dopamine D2 receptors [2]": {"biological_target": "T1, dopamine D2 receptors (Homo sapiens (Human), UniProt P14416)", "T1 sequence (P14416 whole entry)": "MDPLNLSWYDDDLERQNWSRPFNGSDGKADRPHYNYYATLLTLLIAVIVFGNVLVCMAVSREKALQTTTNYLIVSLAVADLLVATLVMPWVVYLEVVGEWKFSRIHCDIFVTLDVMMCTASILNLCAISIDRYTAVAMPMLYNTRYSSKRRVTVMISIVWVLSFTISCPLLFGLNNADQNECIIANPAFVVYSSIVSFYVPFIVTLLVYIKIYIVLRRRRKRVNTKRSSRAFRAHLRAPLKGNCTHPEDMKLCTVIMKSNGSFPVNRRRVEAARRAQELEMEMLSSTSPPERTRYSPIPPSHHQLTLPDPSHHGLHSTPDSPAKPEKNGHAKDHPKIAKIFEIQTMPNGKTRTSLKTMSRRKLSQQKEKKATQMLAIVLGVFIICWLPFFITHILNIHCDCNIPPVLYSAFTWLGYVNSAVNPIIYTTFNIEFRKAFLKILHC", "experiment": "Affinity for dopamine D2 receptors, radioligand competition with [3H]-Methylspiperone", "format": "binding", "details": "293T membrane transiently expressing D2", "method": "The affinity of the compounds of the present disclosure for the dopamine D2 receptors was determined by the method of radioligand competition experiment. In the first step, a cell membrane component containing specific dopamine D2 receptors was prepared. A 10 cm culture dish was used for transfection with 10 ng of the dopamine D2 receptors and 40 μL of polyethylenimine (PEI hereafter). After 48 hours, the 10 cm culture dish was taken out from the cell culture incubator and the cultured cells had expressed the dopamine D2 receptors. A vacuum pump was used to suck off the culture medium, 3 mL of lysis buffer was added to each culture dish, and the cells were placed in a 4° C. cold room for 10 minutes. After the cells were detached, the cells were transferred to a 15 mL centrifuge tube and centrifuged at 1500 rpm for 5 minutes at 4° C., and the supernatant was discarded. The cell pellet was transferred to a tissue homogenizer, and 3 mL of lysis buffer was added and fully ground until the cells were broken. Then, cell suspension was equally aliquoted into several EP tubes, centrifuged at 12000 rpm for 5 minutes at 4° C., and the supernatant was discarded. The precipitate was the cell membrane component containing the dopamine D2 receptors. […] First, a standard binding buffer was added to the cell membrane component containing the dopamine D2 receptors, and the cell membrane was disrupted and resuspended with an electric tissue homogenizer. 30 μL of membrane protein suspension was added to each well of a 96-well plate. Then, 30 μL of different drugs were added to the 96-well plate sequentially from bottom to top to ensure that the final drug concentrations were 10^−5 M, 10^−6 M, 10^−7 M, 10^−8 M, 10^−9 M, and 0 M, with two replicates per treatment. Next, 30 μL of [3H]-Methylspiperone was added to each well of the 96-well plate. The plate was incubated for 2 hours at room temperature in the dark. Detection was conducted. The machine readout value reflected the amount of [3H]-Methylspiperone bound on the membrane, and after further data processing, the affinity Ki values of different compounds for the dopamine D2 receptors were obtained."}, "dopamine D2 receptors [3]": {"biological_target": "T1, dopamine D2 receptors", "experiment": "Dopamine D2 receptor β-arrestin2 BRET (recruitment);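 also: cells co-expressing Rluc-fused D2 receptor, GRK2 and GFP2-fused β-arrestin2, BRET read with coelenterazine 400a after adding drug over a concentration series, in duplicate wells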", "format": "cell-based", "details": "D2 receptor, β-arrestin2 pathway", "method": "To examine the downstream G protein signaling pathway mediated by dopamine D2 receptors, on the first day, a 6 cm culture dish was used for transfection with 1 μg of dopamine D2 receptors, 1 μg of Gαi1 containing a C-terminal seaweed luciferase (Gαi1-Rluc), 1 μg of Gβ3, 1 μg of Gγ9 containing C-terminal green fluorescent protein (Gγ9-GFP), and 16 μL of PEI. At the same time, in order to examine the downstream β-arrestin2 signaling pathway mediated by dopamine D2 receptors, on the first day, a 6 cm culture dish was used for transfection with 500 μg of dopamine D2 receptors containing C-terminal seaweed luciferase (D2-Rluc), 500 μg of G protein-coupled receptor kinase 2 (GRK2), 2500 μg of β-arrestin2 containing N-terminal green fluorescent protein (GFP2-ARRB2) mixed with 14 μL of PEI. The next day, the confluent cells of a 6 cm culture dish were digested and reseeded into a 96-well plate with 100 μL of culture medium added to each well. On the third day, the drugs were added for test. The 96-well plate was taken out from the cell incubator to decant the culture medium, 40 μL of the substrate coelenterazine 400a (final concentration of 5 μM) was added to each well, and then 20 μL of different drugs were added sequentially from left to right to ensure that the final concentration of the drug decreased gradually from bottom to top, with two replicates per treatment. Finally, the prepared samples were loaded on machine for test. The machine readout value reflected the recruitment of β-arrestin2 to the membrane or the dissociation of G protein trimer. The former indicated the degree of activation of the β-arrestin2 signaling pathway downstream of the dopamine D2 receptors, and the latter indicated the degree of activation of the G protein signaling pathway downstream of the dopamine D2 receptors."}},
  "data": [
    {"smiles": "CN(C)C(=O)N[C@H]1CC[C@H](CCN2CCN3c4cccc5scc(c45)CC3C2)CC1", "note": "(single isomer, unassigned; (-)) [(−)-I-27]", "values": [
      {"measurement": "Inhibition of restraint-induced depression-like behaviors", "setting": "[1]; 0.1 mg/kg and 0.025 mg/kg i.p., tail suspension and forced swimming tests", "result": "significantly inhibit"},
      {"measurement": "Immobility time (seconds), tail suspension test", "setting": "[1]; (−)-I-27 0.025 mg/kg i.p.", "result": "87.04 ± 7.69", "unit": "s"},
      {"measurement": "Immobility time (seconds), tail suspension test", "setting": "[1]; (−)-I-27 0.1 mg/kg i.p.", "result": "54.13 ± 6.99", "unit": "s"},
      {"measurement": "Ki", "setting": "dopamine D2 receptors [2]", "result": 120, "unit": "nM"},
      {"measurement": "β-arrestin2 BRET (Emax %)", "setting": "dopamine D2 receptors [3]", "result": "(54.79%)"},
      {"measurement": "EC50", "setting": "dopamine D2 receptors [3]; read-out: β-arrestin2 BRET EC50", "result": 10.6, "unit": "nM"}
    ]}
  ]
}
